Results taken from patent US20100178243A1, “Novel method of stabilizing diagnostic and therapeutic compounds in a cationic carrier system” (MediGene AG, priority 2002, published 2010).
pIC50: −log10 of the molar value.

How the values were obtained:
[1] = Diafiltration: retention of fluorescein dyes in liposome suspension (direct loading); format: physicochemical; conditions: for Conc. marker after diafiltration: 25 mM
Text: Liposomes may be formed by the well-known film method, such as described in the literature.[1] Briefly, from the organic solution of the lipid, or the lipid plus the drug, the solvent is evaporated, and a thin film of lipid (or lipid plus drug) is formed at the inner wall of a flask. The thin molecular film is resuspended in an aqueous phase, which contains the dye, and which may contain further components such as buffers, ions, cryoprotectants, etc. A typical formulation consists of a suspension of 25 mM DOTAP/DOPC 1:1, which is resuspended by a 5 mM solution of the dye.
(§1) As an example, in table 1 the results from some experiments are given. For comparison as well a formulation with anionic lipids was performed. For the anionic liposomes, most of the dye is lost during diafiltration, while for the cationic liposomes a large molar fraction of the dye remains immobilized in the lioposme suspension. […] For the CF experiments a lower bulk concentration of the dye was selected, because in that case binding is so strong, that for higher concentrations the liposomes will be destabilized due to the sterical hindrance by the CF molecules. The fraction of dye which was found immobilized in the suspensions from cationic liposomes was much higher that for the (anionic) DOPG containing liposomes. A band shift (λ max) in the absorption spectrum was observed, which increased as AF<F<CF, indication increasing binding strength. On the contrary, for the DOPG liposomes, no shift of the absorption maximum occurred. This can be seen most clearly in FIG. 1, where the complete spectra for the free and the liposomal dyes are depicted.
Separation of low molecular compounds from the liposomal suspensions Diafiltration techniques were used to separate low molecular components from the liposomal suspensions. For the above described 15 mM DOTAP/DOPC 1:1 formulations with 5 mM dye in the aqueous phase, ca. 50% of the dye was retained in the liposome suspension for AF, and 60% was retained for F. With 0.5 mM of CF, virtually 100% of the dye was retained in the solution (the amount of released dye was monitored by UV-vis)spectroscopy.

[2] = Remote loading of DOTAP/DOPC liposomes with AF, dialysis and UV-vis; format: physicochemical; conditions: remote loading: 25 mM DOTAP/DOPC liposomes mixed with equal volume of 5 mM AF
Protocol: The association of the dye to the liposomes can be performed as well to an already prepared formulation, by simply mixing the dye solution with the liposome suspension. […] The efficacy of the loading can be determined by diafiltration and by UV-vis and fluorescence spectroscopy of the suspension. As an example the results from remote loading of DOTAP/DOPC liposomes with AF (the most weakly binding fluorescein variety) are given. A 25 mM suspension of the pure lipid liposomes was prepared by the standard procedure. Then a 5 mM solution of AF was added to the suspension (equal volumina). Subsequently the suspension was dialyzed in order to remove the free dye. The dye content in the solution was controlled by UV-vis spectroscopy. In FIG. 2, the spectra after mixing, after dialysis, and after addition of triton are shown. The triton was added in order to destroy the liposomes and the release the lipid-bound dye.

[3] = UV-vis absorption maximum (band shift) of liposome-associated fluorescein dyes; format: physicochemical; conditions: 25 mM
Protocol: as §1, with “depicted. All stages of formulation are monitored by HPLC analysis (lipid and drug) and by UV-vis spectroscopy. In HPLC analysis a slight loss of material after extrusion may be observed. UV-vis spectroscopy serves as a qualitative means in order to control formulation efficacy. The UV-vis spectra of the dye are shifted on binding to the lipid. The band shift is a function of the binding constant and the fraction of lipid bound and free dye can be estimated by UV-vis spectroscopy.” for “depicted.”

[4] = Gel filtration (Microspin S-300 HR) separation of non-associated patent blue from liposomes; format: physicochemical; conditions: 50 μl loaded on Microspin S-300 HR
Protocol: Gel filtration is employed to separate the dye (MW<1000 Da) from the colloidal liposome. The free dye is retained in the pores of the column, the liposomes are so large that they elute without retention in the void volume. It is expected that in a liposomal formulation with a lipid concentration of 10 mM approximately 2% of the aqueous phase is entrapped in the liposomes, 98% are not entrapped (Liposomes a practical approach, Ed. R. R. C. New, IRL Press, Oxford 1990). This amount of dye is to be separated from the liposome by gel filtration.
A Microspin™ S-300 HR column (Amersham) was pre-equilibrated as required in the product description and loaded with 50 μl of the neutral liposomal formulation C. The goal was to investigate whether patent blue not associated with the liposomes can be separated from the liposomal fraction as described in the literature (Reynolds, J. A.; Nozaki, Y.; Tanford, C. Gel-exclusion chromatography on S1000 Sephacryl: application to phospholipid vesicles. Anal Biochem 1983, 130 (2), 471-474.) The majority of the dye was retained on the column, a slightly blue solution eluted (liposomes with associated dye; about 2% as estimated by UV spectroscopy). This illustrates that for neutral liposomes we can apply well-established separation protocols to separate un-associated material. […]

A-375 = assay: MTT cell viability assay, 72 h; format: cell-based; conditions: Homo sapiens
Protocol: (§2) A-375 ([…]) and Ea.Hy cells ([…]) is seeded at a constant density (2×10^4/cm^2) in 24-well plates and cultivated over night at conditions of 5-5.5% CO2, 37° C. and ˜90% humidity. At day 1, cell culture medium is replaced by a mixture of fresh medium and a series of 11 consecutive drug dilutions is added to each well (duplicates) to cover a range between 0.1 and 1000 nM final drug concentration. After 72 h, the cell viability in each well is determined by measuring the activity of mitochondrial dehydrogenases (MTT assay). In viable cells the MTT substrate is converted to a blue, cell impermeable dye (Formazan). After 1 h the medium is removed, cells are lysed with isopropanol/0.04% HCl and the amount of the blue Formazan given as optical density at a wavelength of 550 nm (OD550 nm) quantitated in an ELISA reader. The experiment is evaluated using the Sigma Plot analysis software by plotting the mean OD550 nm value against the respective drug concentration. A best fit curve is calculated based on a double-sigmoid assumption algorithm and the IC50 value is determined according to this best fit curve with the following result: […]

Ea.Hy cells = assay: MTT cell viability assay, 72 h; format: cell-based; conditions: Homo sapiens
Protocol: as §2

A-375 Melanoma = assay: Treatment of A-375 melanoma in NMRI nude mice with Taxol and SuccTXL cationic liposomes; format: in vivo; conditions: iv, three times a week for three weeks, equitoxic doses; s.c. A-375 tumors; FIG. 9
Protocol: NMRI-nude mice from Elevage Janvier and housed in isolated ventilated cages under save environmental conditions (SPF facility, 22° C., 30-70% humidity, 12 h light/dark cycle) with food and water ad libitum. Experimental design was reviewed and approved by local government.
Tumor cells (A-375 human melanoma cell line, ATCC Nr.: CRL-1619) were grown as described in the data sheet supplied by ATCC. Tumor cells (5×10^6 in PBS) were inoculated s.c. in the right dorsal flank of mice in a volume of 50 μl on day 0.
Mice were assigned to the experimental groups (8 animals per cage), housed and handled (including monitoring of the body weight gain) at least five days before tumor inoculation (=day −6 to 0). Drug treatment begins after the tumors reached a volume of approximately 100 mm^3. […] Equitoxic doses of the compounds were determined in separate experiments, where toxicity was evaluated based on haematological parameters, body weight and animal clinical observations. […]
Animals were clinically monitored during the whole experiment and for at least one week after treatment was finished. […] The tumor dimensions were measured by calliper and the tumor size was calculated according to the following formula: V=πLW^2/6 (L=greatest length, W=width of perpendicular axis). […] The number of red and white blood cells and platelets were determined using an automated cell counter (Abbott Cell Dyn 3500).

[5] = Liposomal fluoride concentration after dialysis (ion chromatography); format: physicochemical; conditions: rehydrated with 150 mM sodium fluoride, 3 dialysis steps
Protocol: The lipids (either 10 mM DOTAP or 10 mM DOPC) are dissolved in chloroform and the solution is transferred into a round bottom flask. The organic solvent is evaporated under reduced pressure forming a clear lipid film on the flask's surface. This film is dried at 40° C. under vacuum (3 to 5 mbar) for about 60 minutes. Then, the film is rehydrated with the appropriate volume of an aqueous 150 mM sodium fluoride solution resulting in a liposomal solution. The next day, the liposomal solution is extruded 5 times through a 200 nm membrane. The size of the liposomes is determined by PCS (Zetasizer 1000 and 3000, Malvern Instruments). The fluoride that is not associated with the liposomes is removed by 3 successive dialysis steps (8 hours, Pierce, Slide-A-Lyzer dialysis cassette; 10000 molecular weight cut off) and the liposomal fluoride concentration is established by ion chromatography. For cationic 10 mM DOTAP liposomes the fluoride concentration is 1.3 mM, whereas the fluoride ion concentration is about 4 times lower for neutral 10 mM DOPC liposomes (0.3 mM fluoride). The far lower fluoride ion concentration of neutral liposomes is explained by the attractive forces of cationic lipids interacting with the negatively charged halide anion.

[6] = Chemical stability of succinyl paclitaxel in aqueous solution (HPLC, paclitaxel release); format: physicochemical; conditions: for paclitaxel release: 4° C., 0.1 mM Tris-buffered

Nc1ccc(-c2c3ccc(=O)cc-3oc3cc(O)ccc23)c(C(=O)O)c1 [AF, aminofluorescein]
dye retained in the liposome suspension after diafiltration ([1]; 15 mM DOTAP/DOPC 1:1, 5 mM dye in the aqueous phase): ca. 50%
Conc. marker after diafiltration ([1]; DOTAP/DOPC 50/50 liposomes, conc. before diafiltration […]): 800 µg/mL
dye remained bound to the liposomes after dialysis [2]: ca. 50%
λ max ([3]; DOTAP/DOPC 50/50 liposomes): 497.6 nm

CCN(CC)c1ccc(C(=C2C=CC(=[N+](CC)CC)C=C2)c2cc(O)c(S(=O)(=O)O)cc2S(=O)(=O)O)cc1 [PB, Patent blue]
separation of dye from liposomes on gel filtration column (in words) [4]: trapped in the pores of the column material

CC(=O)O[C@H]1C(=O)[C@@]2(C)[C@H]([C@H](OC(=O)c3ccccc3)[C@]3(O)C[C@H](OC(=O)[C@H](O)[C@@H](NC(=O)c4ccccc4)c4ccccc4)C(C)=C1C3(C)C)[C@]1(OC(C)=O)CO[C@@H]1C[C@@H]2O [Taxol ®, Paclitaxel]
pIC50 (A-375): 8.70
pIC50 (Ea.Hy cells): 8.52
tumor growth rate (in words) (A-375 Melanoma): reduced the tumor growth only to a limited extent

[F-].[Na+] [fluoride, sodium fluoride]
liposomal fluoride concentration ([5]; cationic 10 mM DOTAP liposomes): 1.3 mM
liposomal fluoride concentration ([5]; neutral 10 mM DOPC liposomes): 0.3 mM

CC(=O)O[C@H]1C(=O)[C@@]2(C)C([C@H](OC(=O)c3ccccc3)[C@]3(O)C[C@H](OC(=O)C(OC(=O)CCC(=O)O)C(NC(=O)c4ccccc4)c4ccccc4)C(C)=C1C3(C)C)[C@]1(OC(C)=O)CO[C@@H]1C[C@@H]2O (stereo partly drawn) [succinyl paclitaxel]
paclitaxel release ([6]; pH 5, after 9 days): 4%
paclitaxel release ([6]; pH 7, after 9 days): 4%
paclitaxel release ([6]; pH 9, after 9 days): 70%
paclitaxel release (in words) ([6]; 40° C., all pH values (5, 7, 9), within 56 hours): intensive release of paclitaxel
pIC50 (A-375): 8.00
pIC50 (Ea.Hy cells): 7.77

carboxy-fluorescein [CF]
dye retained in the liposome suspension after diafiltration ([1]; 15 mM DOTAP/DOPC 1:1, 0.5 mM of CF): ~100%
Conc. marker after diafiltration ([1]; DOPG/DOPC 95/5 (anionic) liposomes, conc. before diafiltration 1.9 mg/ml): 120 µg/mL
Conc. marker after diafiltration ([1]; DOTAP/DOPC 50/50 liposomes, conc. before diafiltration 0.19 mg/ml): 190 µg/mL
λ max ([3]; DOPG/DOPC 95/5 liposomes): 492.6 nm
λ max ([3]; DOTAP/DOPC 50/50 liposomes): 506 nm
